# Laboratory results published in patent US20050137807A1, “Method of visualization of the ADME properties of chemical substances” (priority 2003, published 2005).
# Tested on: not given
# Test: not given
# Conditions: cited from earlier work
row,Compound,pKa
1,COC(=O)c1ccccc1S(=O)(=O)NC(=O)Nc1nc(C)cc(C)n1 [sulfometuron-methyl],5.2
2,COc1nc(C)nc(NC(=O)NS(=O)(=O)c2ccsc2C(=O)O)n1 [thifensulfuron],4
3,COc1nc(C)nc(NC(=O)NS(=O)(=O)c2ccccc2OCCCl)n1 [triasulfuron],4.64
4,CCOC(=O)c1ccccc1S(=O)(=O)NC(=O)Nc1nc(Cl)cc(OC)n1 [chlorimuron-ethyl],4.2
5,COc1cc(Cl)nc(NC(=O)NS(=O)(=O)c2ccccc2C(=O)O)n1 [chlorimuron],4.2
6,CC(Oc1ccc(Oc2ccc(Cl)cc2Cl)cc1)C(=O)O (centres unmarked) [diclofop],3.43
7,CCC(C)n1c(=O)[nH]c(C)c(Br)c1=O (centres unmarked) [bromacil],9.27
8,COc1nc(C)nc(=NC(=O)NS(=O)(=O)c2ccccc2C(=O)O)[nH]1 [metsulfuron],3.3
9,COC(=O)c1c(Cl)nn(C)c1S(=O)(=O)NC(=O)Nc1nc(OC)cc(OC)n1 [halosulfuron-methyl],3.44
10,O=C(O)c1c(Cl)ccc2cc(Cl)cnc12 [quinclorac],4.34
11,COc1cc(OC)nc(NC(=O)NS(=O)(=O)Cc2ccccc2C(=O)O)n1 [bensulfuron],5.2
12,COc1cc(OC)nc(NC(=O)NS(=O)(=O)c2ncccc2C(=O)N(C)C)n1 [nicosulfuron],4.6
13,COc1cc(OC)nc(NC(=O)NS(=O)(=O)N(C)S(C)(=O)=O)n1 [amidosulfuron],3.58
14,Cc1cc(C)nc(NC(=O)NS(=O)(=O)c2ccccc2C(=O)O)n1 [sulfometuron],5.2
15,CN(C)C(=O)Nc1ccc(Cl)c(Cl)c1 [diuron],13.8
16,Cc1cc(Cl)ccc1OCC(=O)O [MCPA],3.07
17,CON(C)C(=O)Nc1ccc(Cl)cc1 [monolinuron],13.8
18,"O=C(O)COc1ccc(Cl)cc1Cl [2,4-D]",2.73
19,COC(=O)c1cc(Oc2ccc(Cl)cc2Cl)ccc1[N+](=O)[O-] [bifenox],13.8
20,COC(=O)c1ccc(C(F)(F)F)nc1S(=O)(=O)NC(=O)Nc1nc(OC)cc(OC)n1 [flupyrsulfuron-methyl-sodium],4.9
21,C[C@@H](Oc1ccc(Cl)cc1Cl)C(=O)O [dichlorprop-P],3.67
22,O=C(Nc1nc(OC(F)F)cc(OC(F)F)n1)NS(=O)(=O)c1ccccc1C(=O)O [primisulfuron],3.47
23,COc1nc(C)nc(N(C)C(=O)NS(=O)(=O)c2ccccc2C(=O)O)n1 [tribenuron],5

# Tested on: not given
# Test: not given
# Conditions: cited from earlier work
# Remark: another data set of the same source
row,Compound,logP
1,COC(=O)c1ccccc1S(=O)(=O)NC(=O)Nc1nc(C)cc(C)n1 [sulfometuron-methyl],1.4
2,COc1nc(C)nc(NC(=O)NS(=O)(=O)c2ccsc2C(=O)O)n1 [thifensulfuron],0.02
3,COc1nc(C)nc(NC(=O)NS(=O)(=O)c2ccccc2OCCCl)n1 [triasulfuron],1.6
4,CCOC(=O)c1ccccc1S(=O)(=O)NC(=O)Nc1nc(Cl)cc(OC)n1 [chlorimuron-ethyl],2.7
5,COc1cc(Cl)nc(NC(=O)NS(=O)(=O)c2ccccc2C(=O)O)n1 [chlorimuron],0.11
6,CC(Oc1ccc(Oc2ccc(Cl)cc2Cl)cc1)C(=O)O (centres unmarked) [diclofop],4.5
7,CCC(C)n1c(=O)[nH]c(C)c(Br)c1=O (centres unmarked) [bromacil],1.88
8,COc1nc(C)nc(=NC(=O)NS(=O)(=O)c2ccccc2C(=O)O)[nH]1 [metsulfuron],2
9,COC(=O)c1c(Cl)nn(C)c1S(=O)(=O)NC(=O)Nc1nc(OC)cc(OC)n1 [halosulfuron-methyl],2.9
10,O=C(O)c1c(Cl)ccc2cc(Cl)cnc12 [quinclorac],3.6
11,COc1cc(OC)nc(NC(=O)NS(=O)(=O)Cc2ccccc2C(=O)O)n1 [bensulfuron],0.62
12,COc1cc(OC)nc(NC(=O)NS(=O)(=O)c2ncccc2C(=O)N(C)C)n1 [nicosulfuron],0.5
13,COc1cc(OC)nc(NC(=O)NS(=O)(=O)N(C)S(C)(=O)=O)n1 [amidosulfuron],1.63
14,Cc1cc(C)nc(NC(=O)NS(=O)(=O)c2ccccc2C(=O)O)n1 [sulfometuron],−0.51
15,CN(C)C(=O)Nc1ccc(Cl)c(Cl)c1 [diuron],2.85
16,Cc1cc(Cl)ccc1OCC(=O)O [MCPA],2.75
17,CON(C)C(=O)Nc1ccc(Cl)cc1 [monolinuron],2.2
18,"O=C(O)COc1ccc(Cl)cc1Cl [2,4-D]",2.58
19,COC(=O)c1cc(Oc2ccc(Cl)cc2Cl)ccc1[N+](=O)[O-] [bifenox],4.5
20,COC(=O)c1ccc(C(F)(F)F)nc1S(=O)(=O)NC(=O)Nc1nc(OC)cc(OC)n1 [flupyrsulfuron-methyl-sodium],1.3
21,O=C(Nc1nc(OC(F)F)cc(OC(F)F)n1)NS(=O)(=O)c1ccccc1C(=O)O [primisulfuron],0.06
22,COc1nc(C)nc(N(C)C(=O)NS(=O)(=O)c2ccccc2C(=O)O)n1 [tribenuron],−0.44

# Target: human serum albumin (Homo sapiens, UniProt P02768)
# Sequence (P02768 25-609): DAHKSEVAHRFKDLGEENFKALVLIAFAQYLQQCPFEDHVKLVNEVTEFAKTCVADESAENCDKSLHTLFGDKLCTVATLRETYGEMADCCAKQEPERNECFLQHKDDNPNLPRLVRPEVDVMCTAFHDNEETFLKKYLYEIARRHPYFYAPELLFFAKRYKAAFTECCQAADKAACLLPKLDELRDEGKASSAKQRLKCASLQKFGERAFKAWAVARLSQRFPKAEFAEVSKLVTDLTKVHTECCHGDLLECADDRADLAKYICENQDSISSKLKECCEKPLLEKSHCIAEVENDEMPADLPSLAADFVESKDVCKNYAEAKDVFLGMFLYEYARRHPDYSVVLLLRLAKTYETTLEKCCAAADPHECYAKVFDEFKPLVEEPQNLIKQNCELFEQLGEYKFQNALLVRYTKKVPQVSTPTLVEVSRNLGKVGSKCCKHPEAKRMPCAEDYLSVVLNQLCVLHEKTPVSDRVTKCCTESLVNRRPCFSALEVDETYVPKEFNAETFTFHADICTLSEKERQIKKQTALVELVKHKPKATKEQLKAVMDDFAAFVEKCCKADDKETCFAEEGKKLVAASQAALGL
# Test: binding constant to human serum albumin (TRANSIL technology)
# Conditions: human
# Source text: The effective molecular weight (MW) is obtained simply from the respective empirical formula of the substance. The waters solubilities and the typical administered dosages of these commercially available products are furthermore known from the literature.
# The ADME maps in FIGS. 5 to 10 show by way of example a selection of commercially available pharmaceutical substances. The substance names and the associated experimental measurement values for their physicochemical properties are summarised in Table 1.
row,Compound,LogHSA
1,CCn1cc(C(=O)O)c(=O)c2cc(F)c(N3CCNCC3)nc21 [Enoxacin],−2.278
2,N=C(N)N/N=C/c1c(Cl)cccc1Cl [Guanabenz],−3.745
3,Cc1nccn1CC1CCc2c(c3ccccc3n2C)C1=O (centres unmarked) [Ondansetron],−3.237
4,CC(C)(C)NCC(O)c1cc(O)cc(O)c1 (centres unmarked) [Terbutaline],−2.398
5,O=C1NC(=O)C(c2ccccc2)(c2ccccc2)N1 [Phenytoin],−3.639
6,COC(=O)C1=C(C)NC(C)=C(C(=O)OCC(C)C)C1c1ccccc1[N+](=O)[O-] (centres unmarked) [Nisoldipine],−5.319
7,CO/N=C(\C(=O)N[C@@H]1C(=O)N2C(C(=O)O)=C(COC(N)=O)CS[C@H]12)c1ccco1 [Cefuroxime],−2.553

# Tested on: not given
# Test: not given
# Conditions: water solubility, from the literature; cited from earlier work
row,Compound,Solubility [µg/mL]
1,CCn1cc(C(=O)O)c(=O)c2cc(F)c(N3CCNCC3)nc21 [Enoxacin],34300
2,N=C(N)N/N=C/c1c(Cl)cccc1Cl [Guanabenz],1055
3,Cc1nccn1CC1CCc2c(c3ccccc3n2C)C1=O (centres unmarked) [Ondansetron],5.7
4,CC(C)(C)NCC(O)c1cc(O)cc(O)c1 (centres unmarked) [Terbutaline],212800
5,O=C1NC(=O)C(c2ccccc2)(c2ccccc2)N1 [Phenytoin],1267
6,COC(=O)C1=C(C)NC(C)=C(C(=O)OCC(C)C)C1c1ccccc1[N+](=O)[O-] (centres unmarked) [Nisoldipine],25
7,CO/N=C(\C(=O)N[C@@H]1C(=O)N2C(C(=O)O)=C(COC(N)=O)CS[C@H]12)c1ccco1 [Cefuroxime],145

# Tested on: not listed separately
# Test: membrane affinity as a measure of the lipophilicity (TRANSIL technology)
# Format: physicochemical
# Conditions: not given
row,Compound,LogMA
1,CCn1cc(C(=O)O)c(=O)c2cc(F)c(N3CCNCC3)nc21 [Enoxacin],0.954
2,N=C(N)N/N=C/c1c(Cl)cccc1Cl [Guanabenz],0.602
3,Cc1nccn1CC1CCc2c(c3ccccc3n2C)C1=O (centres unmarked) [Ondansetron],2.672
4,CC(C)(C)NCC(O)c1cc(O)cc(O)c1 (centres unmarked) [Terbutaline],0.845
5,O=C1NC(=O)C(c2ccccc2)(c2ccccc2)N1 [Phenytoin],2.778
6,CO/N=C(\C(=O)N[C@@H]1C(=O)N2C(C(=O)O)=C(COC(N)=O)CS[C@H]12)c1ccco1 [Cefuroxime],0.477
